According to patent US12472174B2, “Bupropion dosage forms with reduced food and alcohol dosing effects” (ANTECIP BIOVENTURES II LLC, priority 2022, dated 2025):
Structures can show the parent of a compound that is named as a salt.

Key:
[1] = powder; cited from earlier work
[2] = system: patients with agitation associated with Alzheimer's disease; assay: Phase 2/3 randomized, double-blind, controlled clinical trial in agitation associated with Alzheimer's disease; type: in vivo, human
Description: A Phase 2/3 randomized, double-blind, controlled, multicenter, U.S. clinical trial was conducted to evaluate the efficacy and safety of DM/BU in patients with agitation associated with Alzheimer's disease. A total of 366 patients with a diagnosis of probable Alzheimer's disease and clinically meaningful agitation associated with their disease were randomized, initially in a 1:1:1 ratio, to receive DM/BU (dextromethorphan/bupropion, dose escalated from 30 mg/105 mg once daily in the first week, to 30 mg/105 mg twice daily in the second week, to 45 mg/105 mg twice daily thereafter), bupropion (dose escalated from 105 mg once daily in the first week to 105 mg twice daily thereafter), or matching placebo, for 5 weeks. An independent data monitoring committee performed an interim futility analysis and recommended no further randomization to the bupropion arm. Subsequently, patients were randomized in a 1:1 ratio to receive DM/BU or placebo. Total patients randomized were 159, 49, and 158 to the DM/BU, bupropion, and placebo arms, respectively. The mean Cohen-Mansfield Agitation Inventory (CMAI) total scores at baseline were 60.8, 66.1, and 59.3, respectively for the DM/BU, bupropion, and placebo groups. The minimum score on the CMAI is 29, corresponding to the total absence of symptoms, with higher scores corresponding to greater agitation. The primary endpoint of the study was the change from baseline in the CMAI total score at Week 5. P-values were calculated based on least square mean estimates.
Inclusion criteria included male or female […], diagnosis of probable Alzheimer's disease, according to the 2011 NIA-AA criteria, diagnosis of agitation, according to the IPA provisional definition of agitation, MMSE score between 10 and 24, an NPI-AA score ≥4, and community dwelling. Exclusion criterial included dementia of non-Alzheimer's type and current use of a selective serotonin reuptake inhibitor and/or a serotonin and norepinephrine inhibitor (SSRI/SNRI).

Which solubility in water [1] does the source give for CC(NC(C)(C)C)C(=O)c1cccc(Cl)c1.Cl (racemic) [Bupropion hydrochloride, (±)-1-(3-chlorophenyl)-2-[(1,1-dimethylethyl)amino]-1-propanone hydrochloride] here?
Its solubility in water is “highly soluble in water”.

With CC(NC(C)(C)C)C(=O)c1cccc(Cl)c1 (stereo not shown) [Bupropion, bupropion] as the molecule, how does the “mean reduction from baseline in CMAI total score” value ([2]; Week 5, primary endpoint, placebo 11.5, p=0.010) read?
The value was 10.0 points.

And the Diarrhea ([2]; both, human, in vivo, 5 weeks)?
The Diarrhea was 3 (6.1%) number of subjects (% of subjects).

What about the “Discontinuation due to AEs” value ([2]; both, human, in vivo, 5 weeks) of the same molecule?
The value was 1 (2.0%) number of subjects (% of subjects).

What about the Dizziness ([2]; both, human, in vivo, 5 weeks) of the same molecule?
The Dizziness was 5 (10.2%) number of subjects (% of subjects).

And the Falls ([2]; both, human, in vivo, 5 weeks)?
The Falls was 7 (14.3%) number of subjects (% of subjects).

What about the Fatigue ([2]; both, human, in vivo, 5 weeks) of the same molecule?
Its Fatigue is 5 (10.2%) number of subjects (% of subjects).

And the Headache ([2]; both, human, in vivo, 5 weeks)?
Its Headache is 3 (6.1%) number of subjects (% of subjects).

What about the Insomnia ([2]; both, human, in vivo, 5 weeks) of the same molecule?
The Insomnia was 3 (6.1%) number of subjects (% of subjects).

What about the “Serious AEs” value ([2]; both, human, in vivo, 5 weeks) of the same molecule?
The value was 4 (8.2%) number of subjects (% of subjects).

What about the Somnolence ([2]; both, human, in vivo, 5 weeks) of the same molecule?
The Somnolence was 2 (4.1%) number of subjects (% of subjects).

And the “Subjects with any TEAE” value ([2]; both, human, in vivo, 5 weeks)?
The value was 30 (61.2%) number of subjects (% of subjects).

And the “diarrhea, adverse event rate” value ([2]; both, human, in vivo, 5 weeks)?
Its value is 6.1%.

And the “dizziness, adverse event rate” value ([2]; both, human, in vivo, 5 weeks)?
Its value is 10.2%.

And the “rate of discontinuation due to adverse events” value ([2]; both, human, in vivo, 5 weeks)?
The value was 2.0%.

And the “serious adverse events, patients” value ([2]; both, human, in vivo, 5 weeks)?
The value was 8.2%.

What about the “somnolence, adverse event rate” value ([2]; both, human, in vivo, 5 weeks) of the same molecule?
The value was 4.1%.

What about the deaths ([2]; one in the placebo arm) of the same molecule?
Its deaths is “one”.

Which solubility in water [1] does the source give for COc1ccc2c(c1)[C@]13CCCC[C@@H]1[C@H](C2)N(C)CC3 [Dextromethorphan hydrobromide, morphinan, 3-methoxy-17-methyl-, (9α, 13α, 14α), hydrobromide monohydrate] here?
Its solubility in water is “sparingly soluble in water”.
